In patent publication US20200188388A1, “METHODS AND COMPOSITIONS FOR PO[…] DRUGS AND REDUCING THEIR SIDE EFFECTS” (RVX THERAPEUTICS LTD., priority 2016, published 2020):

Legend:
[1] = system: Wistar rats; assay: Rotenone-induced PSP: severe ataxia, limb dystonia and lethality; assay type: in vivo, rat; conditions: for Severe ataxia sustained dystonic postures and lethality (% of group): ataxia and limb dystonia ++-+++; for [lethality] (% of group): value in brackets
Procedure: The neuro-protective effect in the experimental groups of rats with rotenone-induced PSP was evaluated due the elimination of ataxia, limb dystonia and mortality caused by cerebellar neurotoxic action of rotenone (J. Neurochem., 2005, Vol. 95(4):930-9).
Ataxia and limb dystonia is typical incoordination neurotoxic effect of rotenone manifested in uncoordinated movements and hyper-locomotion, replaced by hypokinesia and stereotypes, and in severe cases a complete violation of antigravity reflexes, falling on its side dystonic posture and akinesia. Assessment of the severity of ataxia and limb dystonia in scores was performed using the following scale: (+) uncoordinated movement, hyperkinesia; (++) significant incoordination, hypokinesia, stereotypes, falling on its side; frequent spontaneous dystonic postures (+++) complete violation of antigravity reflexes, akinesia, sustained dystonic posture (J. Neurosci., 2014, 27; 34(35):11723-32)
(§1) Ataxia and limb dystonia registration was performed twice daily, 30 minutes before administration of rotenone and 180 minutes after administration of rotenone. For each experimental group on a daily basis, throughout the whole period of observation number of rats with severe ataxia and limb dystonia (++−+++) and mortality in % of the total number of rats in group was determined. The neuro-protective effect of therapy (effects on rate of ataxia, limb dystonia and lethality) in rats with PSP was determined at days 12 and 19 of the experiment as reducing the number of rats with severe ataxia limb dystonia and mortality in % compared to control. Side hyperkinetic effects were evaluated in the “open field” test. In this test the locomotive activity in rats is determined. […] Registration of horizontal and vertical locomotive activity in OF assay was performed on the 10th and 18th day of the experiment, within 40 minutes after administration of the substance and 5 minutes before administration of rotenone. Side hyperkinetic effects was evaluated by the number of rats with a significant (at least 50% compared with the first day of the experiment) increase in horizontal and vertical activity (hyperkinesia) as a % of the total number of rats in group.
The neuro-protective effect in the experimental groups of rats with rotenone-induced PSP was evaluated due the elimination of ataxia and mortality caused by neurotoxic action of rotenone. Ataxia is typical incoordination neurotoxic effect of rotenone manifested in uncoordinated movements and hyper-locomotion, replaced by hypokinesia and stereotypes, and in severe cases a complete violation of antigravity reflexes, falling on its side and akinesia. Assessment of the severity of ataxia in scores was performed using the following scale: (+) uncoordinated movement, hyperkinesia; (++) significant incoordination, hypokinesia, stereotypes, falling on its side; (+++) complete violation of antigravity reflexes, akinesia. Ataxia registration was performed twice daily, 30 minutes before administration of rotenone and 180 minutes after administration of rotenone. For each experimental group on a daily basis, throughout the whole period of observation number of rats with severe ataxia (++−+++) and mortality in % of the total number of rats in group was determined. The neuro-protective effect of therapy (effects on rate of ataxia and lethality) in rats with PSP was determined at days 12 and 19 of the experiment as reducing the number of rats with severe ataxia and mortality in % compared to control. Side hyperkinetic effects were evaluated in the “open field” test. In this test the locomotive activity in rats is determined. […] Registration of horizontal and vertical locomotive activity in OF assay was performed on the 10th and 18th day of the experiment, within 40 minutes after administration of the substance and 5 minutes before administration of rotenone.

[2] = system: Wistar rats; assay: Rotenone model: hyperkinetic side effect in open field test (days 10 and 18); assay type: in vivo, rat; conditions: locomotive activity in OF test increased more than 50% vs first day
Procedure: Anti-parkinsonian effect of therapy in rats with rotenone-induced PD was estimated according to elimination of extrapyramidal disorders (catalepsy) and oligokinesia (rapid decreased amplitude and velocity of repeated movements) in the “open field” test. The neuro-protective effect of therapy was evaluated by the elimination of ataxia limb dystonia and mortality in rats with rotenone-induced PSP. Hyperkinetic side action (hyper-locomotion) was evaluated by increased horizontal and vertical activity in the open field at the 10th and 18th day of the experiment, calculated in % compared to the first day of the experiment.
as §1
Anti-parkinsonian effect of therapy in rats with rotenone-induced parkinsonism was estimated according to elimination of extrapyramidal disorders (catalepsy) and oligokinesia in the “open field” test. The neuro-protective effect of therapy was evaluated by the elimination of ataxia and mortality in rats with rotenone-induced PSP. Hyperkinetic side action (hyper-locomotion) was evaluated by increased horizontal and vertical activity in the open field at the 10th and 18th day of the experiment, calculated in % compared to the first day of the experiment.
The neuro-protective effect in the experimental groups of rats with rotenone-induced PSP was evaluated due the elimination of ataxia and mortality caused by neurotoxic action of rotenone. Ataxia is typical incoordination neurotoxic effect of rotenone manifested in uncoordinated movements and hyper-locomotion, replaced by hypokinesia and stereotypes, and in severe cases a complete violation of antigravity reflexes, falling on its side and akinesia. Assessment of the severity of ataxia in scores was performed using the following scale: (+) uncoordinated movement, hyperkinesia; (++) significant incoordination, hypokinesia, stereotypes, falling on its side; (+++) complete violation of antigravity reflexes, akinesia. Ataxia registration was performed twice daily, 30 minutes before administration of rotenone and 180 minutes after administration of rotenone. For each experimental group on a daily basis, throughout the whole period of observation number of rats with severe ataxia (++−+++) and mortality in % of the total number of rats in group was determined. The neuro-protective effect of therapy (effects on rate of ataxia and lethality) in rats with PSP was determined at days 12 and 19 of the experiment as reducing the number of rats with severe ataxia and mortality in % compared to control. Side hyperkinetic effects were evaluated in the “open field” test. In this test the locomotive activity in rats is determined. […]

## CC12CC3CC(C)(C1)CC(N)(C3)C2 [Memantine, memantine]
[1]; Day 12, memantine 5 mg/kg oral
  Severe ataxia sustained dystonic postures and lethality (% of group): 0 % of group
  [lethality] (% of group): 17 % of group
[1]; Day 19, memantine 5 mg/kg oral
  Severe ataxia sustained dystonic postures and lethality (% of group): 17[17] % of group
  [lethality] (% of group): 17[17] % of group
[2]; Day 10, memantine 5 mg/kg oral
  Hyperkmesia (% of group): 40 % of group
[2]; Day 18, memantine 5 mg/kg oral
  Hyperkmesia (% of group): 60 % of group

## N[C@@H](Cc1ccc(O)c(O)c1)C(=O)O [Levodopa, L-3,4-dihydroxyphenylalanine]
[1]; Day 12, levodopa 10 mg/kg oral
  Severe ataxia sustained dystonic postures and lethality (% of group): 14 % of group
  [lethality] (% of group): 0 % of group
[1]; Day 12, levodopa 20 mg/kg oral
  Severe ataxia sustained dystonic postures and lethality (% of group): 0[0] % of group
  [lethality] (% of group): 0[0] % of group
[1]; Day 19, levodopa 10 mg/kg oral
  Severe ataxia sustained dystonic postures and lethality (% of group): 42 % of group
  [lethality] (% of group): 14 % of group
[1]; Day 19, levodopa 20 mg/kg oral
  Severe ataxia sustained dystonic postures and lethality (% of group): 24 % of group
  [lethality] (% of group): 0 % of group
[2]; Day 10, levodopa 10 mg/kg oral
  Hyperkmesia (% of group): 0 % of group
[2]; Day 10, levodopa 20 mg/kg oral
  Hyperkmesia (% of group): 88 % of group
[2]; Day 18, levodopa 10 mg/kg oral
  Hyperkmesia (% of group): 0 % of group
[2]; Day 18, levodopa 20 mg/kg oral
  Hyperkmesia (% of group): 75 % of group
